Reference: patent publication US7432260B2, “Pyrimidine compounds” (Cyclacel Limted, priority 2002, dated 2008)

How the values were obtained:
nci-H460 = experiment: 72-h MTT cytotoxicity assay nci-H460; format: cell-based; conditions: Homo sapiens, NCI-H460, 72 h; Table 5; Lung
Description: (§1) MTT cytotoxicity assay. […] Standard 72-h MTT (thiazolyl blue; 3-[4,5-dimethylthiazol-2-yl]-2,5-diphenyltetrazolium bromide) assays were performed (Haselsberger, K.; Peterson, D. C.; Thomas, D. G.; Darling, J. L. Anti Cancer Drugs 1996, 7, 331-8; Loveland, B. E.; Johns, T. G.; Mackay, I. R.; Vaillant, F.; Wang, Z. X.; Hertzog, P. J. Biochemistry International 1992, 27, 501-10). In short: cells were seeded into 96-well plates according to doubling time and incubated overnight at 37° C. Test compounds were made up in DMSO and a 1/3 dilution series prepared in 100 μL cell media, added to cells (in triplicates) and incubated for 72 ho at 37° C. MTT was made up as a stock of 5 mg/mL in cell media and filter-sterilised. Media was removed from cells followed by a wash with 200 μL PBS.
(§2) MTT solution was then added at 20 μL per well and incubated in the dark at 37° C. for 4 h. MTT solution was removed and cells again washed with 200 μL PBS. MTT dye was solubilised with 200 μL per well of DMSO with agitation.

HL60 = experiment: 72-h MTT cytotoxicity assay HL60; format: cell-based; conditions: Homo sapiens, HL-60, 72 h; Table 5; Promyelocytic leukaemia
Description: as §1, §2

[1] = target: T1, ARK-2: aurora kinase-2 (aurora A kinase) (Homo sapiens, UniProt O14965); experiment: Aurora-A (human) kinase assay; format: biochemical; conditions: Table 2; 15 μM ATP; read-out: Kinase Inhibition IC50 ARK-2
T1 construct: purchased
Description: Aurora-A (human) kinase assay. This was achieved by measurement of incorporation of radioactive phosphate from ATP into Kemptide substrate (LRRASLG), upon phosphorylation by commercially obtained aurora-A kinase. Assays were performed using 96-well plates and appropriate assay buffers (8 mM MOPS, 0.2 mM EDTA, pH 7.0), into which were added 5-10 ng of active enzyme with 200 μM substrate (Kemptide). […] Reactions were stopped by addition of 3% phosphoric acid, followed by filtration through p81 filterplates (Whatman Polyfiltronics, Kent, UK). After washing 5 times with 75 mM aq orthophosphoric acid and once in methanol, plates were dried, scintillant added and incorporated radioactivity measured in a scintillation counter (TopCount, Packard Instruments, Pangbourne, Berks, UK). Compounds for kinase assay were made up as 10 mM stocks in DMSO and diluted into 10% DMSO in assay buffer.

T1 sequence (O14965 whole entry): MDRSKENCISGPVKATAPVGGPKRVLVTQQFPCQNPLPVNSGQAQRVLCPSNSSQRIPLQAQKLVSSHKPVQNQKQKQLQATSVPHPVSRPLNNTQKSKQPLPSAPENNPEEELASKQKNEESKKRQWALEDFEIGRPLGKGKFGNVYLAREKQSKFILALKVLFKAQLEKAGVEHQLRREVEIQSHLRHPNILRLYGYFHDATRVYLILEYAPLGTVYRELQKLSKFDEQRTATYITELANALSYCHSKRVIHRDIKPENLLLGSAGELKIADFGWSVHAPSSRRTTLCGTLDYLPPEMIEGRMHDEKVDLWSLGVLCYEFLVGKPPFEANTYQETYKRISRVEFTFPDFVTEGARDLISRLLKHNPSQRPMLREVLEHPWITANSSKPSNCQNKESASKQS

SMILES | IC50 (nci-H460) [nM] | IC50 (HL60) [nM] | IC50 [1] [nM]
CC[C@@H](N)C(=O)Nc1nc(C)c(-c2ccnc(Nc3cccc([N+](=O)[O-])c3)n2)s1 [Compound 16, (2R)-2-Amino-N-{4-methyl-5-[2-(3-nitro-phenylamino)-pyrimidin-4-yl]-thiazol-2-yl}-butyramide] | 300 | 600 | 2800
Cc1nc(NC(=O)[C@H](N)[C@@H](C)O)sc1-c1ccnc(Nc2cccc([N+](=O)[O-])c2)n1 [Compound 15, (2R,3R)-2-Amino-3-hydroxy-N-{4-methyl-5-[2-(3-nitro-phenylamino)-pyrimidin-4-yl]-thiazol-2-yl}-butyramide] | 1200 | 2200 | –
CNc1nc(C)c(-c2ccnc(Nc3ccc(N4CCN(Cc5ccccc5)CC4)cc3)n2)s1 [Compound 11, [4-(4-Benzyl-piperazin-1-yl)-phenyl]-[4-(4-methyl-2-methylamino-thiazol-5-yl)-pyrimidin-2-yl]-amine] | 700 | 1700 | –
Cc1nc(N)sc1-c1ccnc(Nc2ccc(N3CCOCC3)cc2)n1 [Compound 1, [4-(2-Amino-4-methyl-thiazol-5-yl)-pyrimidin-2-yl]-(4-morpholin-4-yl-phenyl)-amine] | 200 | 1800 | –
